Results on six compounds are retold here after PMC6270892, “Penostatin Derivatives, a Novel Kind of Protein Phosphatase 1B Inhibitors Isolated from Solid Cultures of the Entomogenous Fungus Isaria tenuipes” (Molecules, 2014).

Read-outs that look alike come from different tables or passages of the source. Some results are limits rather than exact numbers.

Experiment [1] concerns PTP1B. Also on record: method as in PMID 20337577. Conditions: cited from earlier work.
The target of experiment [2] is T1, PTP1B (Homo sapiens, UniProt P18031).
T1 sequence (P18031 1-435): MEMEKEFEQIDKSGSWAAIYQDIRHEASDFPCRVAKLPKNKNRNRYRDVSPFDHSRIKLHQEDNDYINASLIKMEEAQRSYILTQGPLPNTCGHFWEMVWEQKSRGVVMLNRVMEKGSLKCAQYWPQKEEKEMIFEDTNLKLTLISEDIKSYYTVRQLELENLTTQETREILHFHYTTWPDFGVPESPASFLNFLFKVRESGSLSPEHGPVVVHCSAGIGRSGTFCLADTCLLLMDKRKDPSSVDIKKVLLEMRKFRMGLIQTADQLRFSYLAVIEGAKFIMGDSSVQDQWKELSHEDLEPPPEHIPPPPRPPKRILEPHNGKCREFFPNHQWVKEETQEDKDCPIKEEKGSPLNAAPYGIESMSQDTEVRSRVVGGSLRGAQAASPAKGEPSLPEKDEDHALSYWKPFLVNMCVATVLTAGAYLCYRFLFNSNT
Nature of the experiment: PTP1B inhibition assay (pNPP hydrolysis / Malachite Green). Conditions: for IC50: mean ± SD of three replicates; for selectivity between PTP1B and LAR: PTP1B versus LAR, in words. The experiment is classed as biochemical. The method, then: PTP1B activity was measured as the rate of hydrolysis of p-nitrophenyl phosphate (pNPP) in a 96-well microtiter plate format. […] Inhibitors were added in DMSO at 100 times the final concentration. PTP1B activity was measured as the rate of inorganic phosphate released upon hydrolysis of the IR phosphopeptide, TRDIpYETDpYpYRK, using a Malachite Green method. The enzyme activity was estimated by measuring the absorbance at 405 nm with appropriate corrections. Each experiment was performed either in triplicate, and IC50 data were derived from three independent experiments.
Calculations. PTPase activities, based on a potassium phosphate standard curve, were expressed as nanomoles of phosphate released/min/mg protein. Inhibition of recombinant h-PTP1B by test compounds was calculated as percent of phosphatase control. A four-parameter nonlinear logistic regression of PTPase activities using SAS release 6.08, PROC NLIN, was used for determining IC50 values of the test compounds.

Another experiment concerns the target LAR (Homo sapiens, UniProt P10586). In words: LAR phosphatase inhibition assay. It counts as biochemical. The method, then: PTP1B activity was measured as the rate of hydrolysis of p-nitrophenyl phosphate (pNPP) in a 96-well microtiter plate format. Standard assays were conducted at room temperature in a total volume of 0.2 mL that contained HEPES buffer (50 mM, pH 7.2), NaCl (50 mM), EDTA (1 mM), DTT (1 mM), bovine serum albumin (1 mg/mL), pNPP (at various concentrations, Km) 1.4 (0.03 mM), and PTP1B (35 ng/mL). Sodium orthovanadate was used as the positive control. Inhibitors were added in DMSO at 100 times the final concentration. PTP1B activity was measured as the rate of inorganic phosphate released upon hydrolysis of the IR phosphopeptide, TRDIpYETDpYpYRK, using a Malachite Green method. The enzyme activity was estimated by measuring the absorbance at 405 nm with appropriate corrections. Each experiment was performed either in triplicate, and IC50 data were derived from three independent experiments.
Activities of LAR were measured as described above except that the HEPES buffer (50 mM) was at pH 6.8, and the enzyme was added at a concentration of 10 μg/mL. Activity of calcineurin (from Sigma Chemical Co.) was assayed using 4-methylumbelliferyl phosphate (0.8 mM) as a substrate in an assay mixture that contained Tris-HCl buffer (40 mM, pH 8.6), NaCl (100 mM), CaCl2 (0.5 mM), DTT (0.5 mM), bovine serum albumin (0.1 mg/mL), calmodulin (50 nM), and calcineurin (25 nM). Sodium orthovanadate was used as the positive control. Fluorescence at 450 nm was monitored with excitation at 400 nm. The color was allowed to develop at room temperature for 30 min, and the sample absorbances were determined at 650 nm using a plate reader (Molecular Devices, Sunnyvale, CA, USA). Each experiment was performed either in triplicate, and IC50 data were derived from three independent experiments.
Calculations. PTPase activities, based on a potassium phosphate standard curve, were expressed as nanomoles of phosphate released/min/mg protein. Inhibition of recombinant h-PTP1B by test compounds was calculated as percent of phosphatase control. A four-parameter nonlinear logistic regression of PTPase activities using SAS release 6.08, PROC NLIN, was used for determining IC50 values of the test compounds. The reported IC50 values show significant fit to the regression curve (p < 0.05).

The mark [3] stands for this setting: tested at 50 μg/mL, read-out: LAR inhibition.

Sequence of LAR (P10586 30-1907, species assumed): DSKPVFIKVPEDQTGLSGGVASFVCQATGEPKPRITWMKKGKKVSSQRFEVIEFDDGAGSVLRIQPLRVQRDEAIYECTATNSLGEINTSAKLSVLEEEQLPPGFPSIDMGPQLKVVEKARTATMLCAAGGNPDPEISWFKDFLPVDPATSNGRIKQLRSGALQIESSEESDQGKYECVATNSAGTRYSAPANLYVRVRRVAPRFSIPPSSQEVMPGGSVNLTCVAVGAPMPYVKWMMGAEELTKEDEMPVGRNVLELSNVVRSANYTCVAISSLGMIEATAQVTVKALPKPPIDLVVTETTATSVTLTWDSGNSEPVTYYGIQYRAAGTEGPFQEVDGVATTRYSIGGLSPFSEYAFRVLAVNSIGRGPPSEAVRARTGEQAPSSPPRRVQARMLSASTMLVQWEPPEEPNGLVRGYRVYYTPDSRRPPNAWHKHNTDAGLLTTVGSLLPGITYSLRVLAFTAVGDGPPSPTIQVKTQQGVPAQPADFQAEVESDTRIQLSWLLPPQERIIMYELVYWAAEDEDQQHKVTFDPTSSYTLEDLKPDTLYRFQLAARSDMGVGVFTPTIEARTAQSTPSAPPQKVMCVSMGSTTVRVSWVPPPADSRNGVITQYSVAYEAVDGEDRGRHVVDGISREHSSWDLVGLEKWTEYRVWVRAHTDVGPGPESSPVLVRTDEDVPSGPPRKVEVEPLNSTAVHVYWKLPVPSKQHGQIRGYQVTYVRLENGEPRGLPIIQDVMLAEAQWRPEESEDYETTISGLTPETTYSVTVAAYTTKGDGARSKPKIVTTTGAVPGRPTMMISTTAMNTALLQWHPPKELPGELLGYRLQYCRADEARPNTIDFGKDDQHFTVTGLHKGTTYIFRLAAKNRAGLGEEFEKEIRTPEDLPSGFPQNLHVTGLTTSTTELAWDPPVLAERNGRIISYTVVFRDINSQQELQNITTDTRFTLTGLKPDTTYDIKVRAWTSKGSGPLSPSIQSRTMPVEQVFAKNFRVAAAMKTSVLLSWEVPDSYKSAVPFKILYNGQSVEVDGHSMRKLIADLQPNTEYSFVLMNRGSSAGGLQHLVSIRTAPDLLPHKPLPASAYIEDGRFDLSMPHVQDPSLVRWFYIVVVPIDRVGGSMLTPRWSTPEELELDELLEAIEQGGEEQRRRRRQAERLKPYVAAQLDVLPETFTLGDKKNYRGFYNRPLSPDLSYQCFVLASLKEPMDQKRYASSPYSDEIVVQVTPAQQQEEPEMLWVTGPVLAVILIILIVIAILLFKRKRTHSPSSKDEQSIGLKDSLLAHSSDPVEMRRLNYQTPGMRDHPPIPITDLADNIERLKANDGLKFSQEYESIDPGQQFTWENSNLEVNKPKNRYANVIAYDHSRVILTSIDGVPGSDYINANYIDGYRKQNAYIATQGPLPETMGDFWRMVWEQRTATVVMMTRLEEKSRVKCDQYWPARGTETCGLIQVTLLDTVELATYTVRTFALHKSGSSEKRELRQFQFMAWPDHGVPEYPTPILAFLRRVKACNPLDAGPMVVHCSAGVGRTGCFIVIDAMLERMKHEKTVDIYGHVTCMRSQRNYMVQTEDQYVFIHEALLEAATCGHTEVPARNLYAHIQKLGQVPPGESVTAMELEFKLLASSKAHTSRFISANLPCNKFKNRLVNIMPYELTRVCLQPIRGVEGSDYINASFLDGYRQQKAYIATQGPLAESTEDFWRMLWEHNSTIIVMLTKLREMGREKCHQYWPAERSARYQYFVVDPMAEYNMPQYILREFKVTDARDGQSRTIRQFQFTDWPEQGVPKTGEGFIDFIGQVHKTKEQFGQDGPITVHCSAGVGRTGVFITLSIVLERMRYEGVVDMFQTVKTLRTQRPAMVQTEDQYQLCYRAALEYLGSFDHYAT

Take `CC(C)[C@@H](CC[C@@H](C)[C@H]1CC[C@H]2[C@@H]3[C@H](O)C[C@H]4C[C@@H](NCCCNCCCCNCCCN)CC[C@]4(C)[C@H]3CC[C@]12C)OS(=O)(=O)O` [MSI-1436]: the IC50 in the experiment with PTP1B [1] is […].
On to `CCCCCCC/C=C/[C@@H]1O[C@H]2C(=O)C=C3C[C@H](O)C[C@H]3[C@@H]2C=C1C` [Compound 3, penostatin A], for which the IC50 against PTP1B [2] is 15.9 ± 2.49 µM; on LAR (setting [3]), > 145 µM.
In the case of `CCCCCCC/C=C/[C@@H]1O[C@H]2C(=O)C=C3C=CC[C@H]3[C@@H]2C=C1C` [Compound 2, penostatin C], at PTP1B [2], the “selectivity between PTP1B and LAR” value is “significant selectivity”; the IC50 came out at 0.37 ± 0.05 µM. Also, the IC50 on LAR (mean ± SD of three replicates, read-out: IC50 (μM) LAR) is 53.3 ± 4.06 µM.
With `Cc1cc(-c2c3ccccc3c(Br)c3sc(C)c(C)c23)cc(C)c1O[C@H](Cc1ccccc1)C(=O)O` [ertiprotafib], the IC50 in the experiment with PTP1B [1] is 1.6 µM.
As to `CCCCCCC/C=C/[C@@H]1O[C@@]2(O)C(=O)C=C3C=CC[C@H]3[C@@H]2C=C1C` [Compound 1, penostatin J], at PTP1B [2], the “selectivity between PTP1B and LAR” value is recorded as “significant selectivity”; the IC50 amounted to 12.5 ± 0.9 µM. In addition, the IC50 on LAR (setting [3]) is > 146 µM.
On to `CCCCCCC/C=C/[C@@H]1O[C@H]2C(=O)C=C3C[C@@H](O)C[C@H]3[C@@H]2C=C1C` [Compound 4, penostatin B], for which the IC50 was 33.7 ± 7.33 µM against PTP1B [2] and > 145 µM on LAR (setting [3]).
